Reference: publication PMC9481151, “Discovery of new symmetrical and asymmetrical nitrile-containing 1,4-dihydropyridine derivatives as dual kinases and P-glycoprotein inhibitors: synthesis, in vitro assays, and in silico studies” (Journal of Enzyme Inhibition and Medicinal Chemistry, 2022)

How the values were obtained:
CCRF-CEM = assay: NCI single dose (10 µM) SRB screen; assay type: cell-based, human; details: leukaemia, 48 h
HL-60(TB) = assay: NCI single dose (10 µM) SRB screen; assay type: cell-based, human; details: leukaemia, 48 h
K-562 = assay: NCI single dose (10 µM) SRB screen; assay type: cell-based, human; details: leukaemia, 48 h
MOLT-4 = assay: NCI single dose (10 µM) SRB screen; assay type: cell-based, human; details: leukaemia, 48 h
RPMI-8226 = assay: NCI single dose (10 µM) SRB screen; assay type: cell-based, human; details: leukaemia, 48 h
SR = assay: NCI single dose (10 µM) SRB screen; assay type: cell-based, human; details: leukaemia, 48 h
A549/ATCC = assay: NCI single dose (10 µM) SRB screen; assay type: cell-based, human; details: non-small cell lung cancer, 48 h
EKVX = assay: NCI single dose (10 µM) SRB screen; assay type: cell-based, human; details: non-small cell lung cancer, 48 h
HOP-62 = assay: NCI single dose (10 µM) SRB screen; assay type: cell-based, human; details: non-small cell lung cancer, 48 h
HOP-92 = assay: NCI single dose (10 µM) SRB screen; assay type: cell-based, human; details: non-small cell lung cancer, 48 h
NCI-H23 = assay: NCI single dose (10 µM) SRB screen; assay type: cell-based, human; details: non-small cell lung cancer, 48 h
NCI-H322M = assay: NCI single dose (10 µM) SRB screen; assay type: cell-based; details: non-small cell lung cancer, 48 h
NCI-H460 = assay: NCI single dose (10 µM) SRB screen; assay type: cell-based, human; details: non-small cell lung cancer, 48 h
NCI-H522 = assay: NCI single dose (10 µM) SRB screen; assay type: cell-based, human; details: non-small cell lung cancer, 48 h
COLO 205 = assay: NCI single dose (10 µM) SRB screen; assay type: cell-based, human; details: colon cancer, 48 h
HCC-2998 = assay: NCI single dose (10 µM) SRB screen; assay type: cell-based, human; details: colon cancer, 48 h
HCT-116 = assay: NCI single dose (10 µM) SRB screen; assay type: cell-based, human; details: colon cancer, 48 h
HCT-15 = assay: NCI single dose (10 µM) SRB screen; assay type: cell-based, human; details: colon cancer, 48 h
SW-620 = assay: NCI single dose (10 µM) SRB screen; assay type: cell-based, human; details: colon cancer, 48 h
SF-268 = assay: NCI single dose (10 µM) SRB screen; assay type: cell-based, human; details: CNS cancer, 48 h
SF-295 = assay: NCI single dose (10 µM) SRB screen; assay type: cell-based, human; details: CNS cancer, 48 h
SF-539 = assay: NCI single dose (10 µM) SRB screen; assay type: cell-based, human; details: CNS cancer, 48 h
SNB-19 = assay: NCI single dose (10 µM) SRB screen; assay type: cell-based, human; details: CNS cancer, 48 h
SNB-75 = assay: NCI single dose (10 µM) SRB screen; assay type: cell-based, human; details: CNS cancer, 48 h
U251 = assay: NCI single dose (10 µM) SRB screen; assay type: cell-based, human; details: CNS cancer, 48 h
LOX IMVI = assay: NCI single dose (10 µM) SRB screen; assay type: cell-based, human; details: melanoma, 48 h
MALME-3M = assay: NCI single dose (10 µM) SRB screen; assay type: cell-based, human; details: melanoma, 48 h
M14 = assay: NCI single dose (10 µM) SRB screen; assay type: cell-based, human; details: melanoma, 48 h
MDA-MB-435 = assay: NCI single dose (10 µM) SRB screen; assay type: cell-based, human; details: melanoma, 48 h
SK-MEL-28 = assay: NCI single dose (10 µM) SRB screen; assay type: cell-based, human; details: melanoma, 48 h
UACC-257 = assay: NCI single dose (10 µM) SRB screen; assay type: cell-based, human; details: melanoma, 48 h
UACC-62 = assay: NCI single dose (10 µM) SRB screen; assay type: cell-based, human; details: melanoma, 48 h
OVCAR-3 = assay: NCI single dose (10 µM) SRB screen; assay type: cell-based, human; details: ovarian cancer, 48 h
OVCAR-4 = assay: NCI single dose (10 µM) SRB screen; assay type: cell-based, human; details: ovarian cancer, 48 h
OVCAR-8 = assay: NCI single dose (10 µM) SRB screen; assay type: cell-based, human; details: ovarian cancer, 48 h
NCI/ADR-RES = assay: NCI single dose (10 µM) SRB screen; assay type: cell-based, human; details: ovarian cancer, 48 h
SK-OV-3 = assay: NCI single dose (10 µM) SRB screen; assay type: cell-based, human; details: ovarian cancer, 48 h
786-0 = assay: NCI single dose (10 µM) SRB screen; assay type: cell-based, human; details: renal cancer, 48 h
A498 = assay: NCI single dose (10 µM) SRB screen; assay type: cell-based, human; details: renal cancer, 48 h
RXF 393 = assay: NCI single dose (10 µM) SRB screen; assay type: cell-based, human; details: renal cancer, 48 h
SN12C = assay: NCI single dose (10 µM) SRB screen; assay type: cell-based, human; details: renal cancer, 48 h
UO-31 = assay: NCI single dose (10 µM) SRB screen; assay type: cell-based, human; details: renal cancer, 48 h
PC-3 = assay: NCI single dose (10 µM) SRB screen; assay type: cell-based, human; details: prostate cancer, 48 h
DU-145 = assay: NCI single dose (10 µM) SRB screen; assay type: cell-based, human; details: prostate cancer, 48 h
MCF7 = assay: NCI single dose (10 µM) SRB screen; assay type: cell-based, human; details: breast cancer, 48 h
MDA-MB-231 = assay: NCI single dose (10 µM) SRB screen; assay type: cell-based, human; details: breast cancer, 48 h
BT-549 = assay: NCI single dose (10 µM) SRB screen; assay type: cell-based, human; details: breast cancer, 48 h
T-47D = assay: NCI single dose (10 µM) SRB screen; assay type: cell-based, human; details: breast cancer, 48 h
MDA-MB-468 = assay: NCI single dose (10 µM) SRB screen; assay type: cell-based, human; details: breast cancer, 48 h
NCI 60 cancer cell lines = assay: NCI single dose (10 µM) SRB screen, mean over panel; assay type: cell-based, human; details: mean over 60 cell lines, 48 h
Staphylococcus aureus = assay: Agar well diffusion method
Bacillus subtilis = assay: Agar well diffusion method; details: relative to ciprofloxacin
Pseudomonas aeruginosa = assay: Agar well diffusion method

## COC(=O)C1=C(C)NC(C)=C(C(=O)OCc2ccccc2)C1c1cccc(C#N)c1 (racemic) [Compound 2e, (±)-3-Benzyl 5-methyl 4-(3-cyanophenyl)-2,6-dimethyl-1,4-dihydropyridine-3,5-dicarboxylate]
CCRF-CEM
  GI% CCRF-CEM: 37%
HL-60(TB)
  GI% HL-60(TB): 43%
K-562
  GI% K-562: 56%
MOLT-4
  GI% MOLT-4: 56%
RPMI-8226
  GI% RPMI-8226: 52%
SR
  GI% SR: 33%
A549/ATCC
  GI% A549/ATCC: 31%
EKVX
  GI% EKVX: 26%
HOP-62
  GI% HOP-62: 16%
HOP-92
  GI% HOP-92: 12%
NCI-H23
  GI% NCI-H23: – (Only GI% ≥ 10 are shown)
NCI-H322M
  GI% NCI-H322M: – (Only GI% ≥ 10 are shown)
NCI-H460
  GI% NCI-H460: 64%
NCI-H522
  GI% NCI-H522: 24%
COLO 205
  GI% COLO 205: 43%
HCC-2998
  GI% HCC-2998: – (Only GI% ≥ 10 are shown)
HCT-116
  GI% HCT-116: 71%
HCT-15
  GI% HCT-15: 66%
SW-620
  GI% SW-620: 45%
SF-268
  GI% SF-268: 23%
SF-295
  GI% SF-295: 44%
SF-539
  GI% SF-539: 32%
SNB-19
  GI% SNB-19: 32%
SNB-75
  GI% SNB-75: 34%
U251
  GI% U251: 46%
LOX IMVI
  GI% LOX IMVI: 61%
MALME-3M
  GI% MALME-3M: 24%
M14
  GI% M14: 15%
MDA-MB-435
  GI% MDA-MB-435: 35%
SK-MEL-28
  GI% SK-MEL-28: 27%
UACC-257
  GI% UACC-257: 21%
UACC-62
  GI% UACC-62: 37%
OVCAR-3
  GI% OVCAR-3: – (Only GI% ≥ 10 are shown)
OVCAR-4
  GI% OVCAR-4: – (Only GI% ≥ 10 are shown)
OVCAR-8
  GI% OVCAR-8: 34%
NCI/ADR-RES
  GI% NCI/ADR-RES: 25%
SK-OV-3
  GI% SK-OV-3: – (Only GI% ≥ 10 are shown)
786-0
  GI% 786-0: 22%
A498
  GI% A498: 10%
RXF 393
  GI% RXF 393: 14%
SN12C
  GI% SN12C: – (Only GI% ≥ 10 are shown)
UO-31
  GI% UO-31: – (Only GI% ≥ 10 are shown)
PC-3
  GI% PC-3: 51%
DU-145
  GI% DU-145: 15%
MCF7
  GI% MCF7: 29%
MDA-MB-231
  GI% MDA-MB-231: 30%
BT-549
  GI% BT-549: – (Only GI% ≥ 10 are shown)
T-47D
  GI% T-47D: 11%
MDA-MB-468
  GI% MDA-MB-468: 33%
NCI 60 cancer cell lines
  Mean GI%: 28%
Staphylococcus aureus; Staphylococcus aureus, 24 h, read-out: Diameter of inhibition zone, S. aureus
  zone of inhibition at 1000 µg/mL: 8 mm
Staphylococcus aureus; relative to ciprofloxacin
  % activity index, S. aureus: 33.3%
Bacillus subtilis
  % activity index, B. subtilis: – (Values below 25 are of limited value and not shown as they refer either to inactive or non-diffusing compounds)
Pseudomonas aeruginosa; Pseudomonas aeruginosa, 24 h, read-out: Diameter of inhibition zone, P. aeruginosa
  zone of inhibition at 1000 µg/mL: 7 mm
Pseudomonas aeruginosa; relative to ciprofloxacin
  % activity index, P. aeruginosa: 30.4%
